Measured values from publication PMC8900464 (Journal of medicinal chemistry, 2022).

Assays:
[1] = test system: P-AKT (S473), P-PRAS40 (T246), P-S6 (S240/244); test: Immunoblotting of P-AKT and downstream signaling in BT474 cells; assay type: cell-based; details: 24 h
total AKT (T-AKT) = test: Immunoblotting of total AKT in BT474 cells; assay type: cell-based; details: 24 h, western blot; for AKT (T-AKT) degradation: BT474 cells, 1, 5 and 10 μM; for AKT degradation: BT474 cells
[2] = BT474 cells, 1, 5 and 10 μM, P-PRAS40 and P-S6, western blot
[3] = BT474 cells, 5 μM, western blot

SMILES	AKT (T-AKT) degradation (total AKT (T-AKT))	also measured
Cc1ncsc1-c1ccc(CNC(=O)[C@@H]2C[C@@H](O)CN2C(=O)[C@@H](NC(=O)COCC(=O)N2CCN(CC[C@H](NC(=O)C3(N)CCN(c4ncnc5[nH]ccc45)CC3)c3ccc(Cl)cc3)CC2)C(C)(C)C)cc1 [Compound 3, 4-Amino-N-((S)-1-(4-chlorophenyl)-3-(4-(2-(2-(((S)-1-((2S,4R)-4-hydroxy-2-((4-(4-methylthiazol-5-yl)benzyl)carbamoyl)pyrrolidin-1-yl)-3,3-dimethyl-1-oxobutan-2-yl)amino)-2-oxoethoxy)acetyl)-piperazin-1-yl)propyl)-1-(7H-pyrrolo[2,3-d]pyrimidin-4-yl)-piperidine-4-carboxamide]	most significant T-AKT degradation	downstream signaling inhibition [1, 2]: most effective inhibition of the downstream signaling
Cc1ncsc1-c1ccc(CNC(=O)[C@@H]2C[C@@H](O)CN2C(=O)[C@@H](NC(=O)CCOCCC(=O)N2CCN(CC[C@H](NC(=O)C3(N)CCN(c4ncnc5[nH]ccc45)CC3)c3ccc(Cl)cc3)CC2)C(C)(C)C)cc1 [Compound 4, 4-Amino-N-((S)-1-(4-chlorophenyl)-3-(4-(3-(3-(((S)-1-((2S,4R)-4-hydroxy-2-((4-(4-methylthiazol-5-yl)benzyl)carbamoyl)pyrrolidin-1-yl)-3,3-dimethyl-1-oxobutan-2-yl)amino)-3-oxopropoxy)-propanoyl)piperazin-1-yl)propyl)-1-(7H-pyrrolo[2,3-d]pyrimidin-4-yl)piperidine-4-carboxamide]	decreased the AKT degradation effectiveness	–
Cc1ncsc1-c1ccc(CNC(=O)[C@@H]2C[C@@H](O)CN2C(=O)[C@@H](NC(=O)CCC(=O)N2CCN(CC[C@H](NC(=O)C3(N)CCN(c4ncnc5[nH]ccc45)CC3)c3ccc(Cl)cc3)CC2)C(C)(C)C)cc1 [Compound 12, 4-Amino-N-((S)-1-(4-chlorophenyl)-3-(4-(4-(((S)-1-((2S,4R)-4-hydroxy-2-((4-(4-methylthiazol-5-yl)benzyl)carbamoyl)pyrrolidin-1-yl)-3,3-dimethyl-1-oxobutan-2-yl)amino)-4-oxobutanoyl)-piperazin-1-yl)propyl)-1-(7H-pyrrolo[2,3-d]pyrimidin-4-yl)-piperidine-4-carboxamide]	inactive at reducing the T-AKT protein level	–
Cc1ncsc1-c1ccc(CNC(=O)[C@@H]2C[C@@H](O)CN2C(=O)[C@@H](NC(=O)CCCC(=O)N2CCN(CC[C@H](NC(=O)C3(N)CCN(c4ncnc5[nH]ccc45)CC3)c3ccc(Cl)cc3)CC2)C(C)(C)C)cc1 [Compound 13, 4-Amino-N-((S)-1-(4-chlorophenyl)-3-(4-(5-(((S)-1-((2S,4R)-4-hydroxy-2-((4-(4-methylthiazol-5-yl)benzyl)carbamoyl)pyrrolidin-1-yl)-3,3-dimethyl-1-oxobutan-2-yl)amino)-5-oxopentanoyl)-piperazin-1-yl)propyl)-1-(7H-pyrrolo[2,3-d]pyrimidin-4-yl)-piperidine-4-carboxamide]	inactive at reducing the T-AKT protein level	–
Cc1ncsc1-c1ccc(CNC(=O)[C@@H]2C[C@@H](O)CN2C(=O)[C@@H](NC(=O)CCCCC(=O)N2CCN(CC[C@H](NC(=O)C3(N)CCN(c4ncnc5[nH]ccc45)CC3)c3ccc(Cl)cc3)CC2)C(C)(C)C)cc1 [Compound 14, 4-Amino-N-((S)-1-(4-chlorophenyl)-3-(4-(6-(((S)-1-((2S,4R)-4-hydroxy-2-((4-(4-methylthiazol-5-yl)benzyl)carbamoyl)pyrrolidin-1-yl)-3,3-dimethyl-1-oxobutan-2-yl)amino)-6-oxohexanoyl)-piperazin-1-yl)propyl)-1-(7H-pyrrolo[2,3-d]pyrimidin-4-yl)-piperidine-4-carboxamide]	–	downstream signaling inhibition [1, 3]: significant downstream signaling inhibition; AKT degradation (total AKT (T-AKT); 5 μM): improved AKT degradation
Cc1ncsc1-c1ccc(CNC(=O)[C@@H]2C[C@@H](O)CN2C(=O)[C@@H](NC(=O)CCCCCC(=O)N2CCN(CC[C@H](NC(=O)C3(N)CCN(c4ncnc5[nH]ccc45)CC3)c3ccc(Cl)cc3)CC2)C(C)(C)C)cc1 [Compound 15, 4-Amino-N-((S)-1-(4-chlorophenyl)-3-(4-(7-(((S)-1-((2S,4R)-4-hydroxy-2-((4-(4-methylthiazol-5-yl)benzyl)carbamoyl)pyrrolidin-1-yl)-3,3-dimethyl-1-oxobutan-2-yl)amino)-7-oxoheptanoyl)-piperazin-1-yl)propyl)-1-(7H-pyrrolo[2,3-d]pyrimidin-4-yl)-piperidine-4-carboxamide]	–	downstream signaling inhibition [1, 3]: significant downstream signaling inhibition; AKT degradation (total AKT (T-AKT); 5 μM): improved AKT degradation
Cc1ncsc1-c1ccc(CNC(=O)[C@@H]2C[C@@H](O)CN2C(=O)[C@@H](NC(=O)CCCCCCCCCC(=O)N2CCN(CC[C@H](NC(=O)C3(N)CCN(c4ncnc5[nH]ccc45)CC3)c3ccc(Cl)cc3)CC2)C(C)(C)C)cc1 [Compound 19, 4-Amino-N-((S)-1-(4-chlorophenyl)-3-(4-(11-(((S)-1-((2S,4R)-4-hydroxy-2-((4-(4-methylthiazol-5-yl)benzyl)carbamoyl)pyrrolidin-1-yl)-3,3-dimethyl-1-oxobutan-2-yl)amino)-11-oxoundecanoyl)-piperazin-1-yl)propyl)-1-(7H-pyrrolo[2,3-d]pyrimidin-4-yl)-piperidine-4-carboxamide]	most profound AKT degradation	downstream signaling inhibition [1, 2]: most profound AKT degradation and downstream signaling inhibition
NC1(C(=O)N[C@@H](CCN2CCN(C(=O)CNc3cccc4c3C(=O)N(C3CCC(=O)NC3=O)C4=O)CC2)c2ccc(Cl)cc2)CCN(c2ncnc3[nH]ccc23)CC1 (stereo partly drawn) [Compound 24, 4-Amino-N-((1S)-1-(4-chlorophenyl)-3-(4-((2-(2,6-dioxopiperidin-3-yl)-1,3-dioxoisoindolin-4-yl)glycyl)piperazin-1-yl)propyl)-1-(7H-pyrrolo[2,3-d]pyrimidin-4-yl)piperidine-4-carboxamide]	negligible AKT degradation	–
NC1(C(=O)N[C@@H](CCN2CCN(C(=O)CCNc3cccc4c3C(=O)N(C3CCC(=O)NC3=O)C4=O)CC2)c2ccc(Cl)cc2)CCN(c2ncnc3[nH]ccc23)CC1 (stereo partly drawn) [Compound 25, 4-Amino-N-((1S)-1-(4-chlorophenyl)-3-(4-(3-((2-(2,6-dioxopiperidin-3-yl)-1,3-dioxoisoindolin-4-yl)amino)propanoyl)piperazin-1-yl)propyl)-1-(7H-pyrrolo[2,3-d]pyrimidin-4-yl)piperidine-4-carboxamide]	negligible AKT degradation	–
NC1(C(=O)N[C@@H](CCN2CCN(C(=O)CCCNc3cccc4c3C(=O)N(C3CCC(=O)NC3=O)C4=O)CC2)c2ccc(Cl)cc2)CCN(c2ncnc3[nH]ccc23)CC1 (stereo partly drawn) [Compound 26, 4-Amino-N-((1S)-1-(4-chlorophenyl)-3-(4-(4-((2-(2,6-dioxopiperidin-3-yl)-1,3-dioxoisoindolin-4-yl)amino)butanoyl)piperazin-1-yl)-propyl)-1-(7H-pyrrolo[2,3-d]pyrimidin-4-yl)piperidine-4-carboxamide]	moderate effectiveness	downstream signaling inhibition [1, 2]: moderate effectiveness
NC1(C(=O)N[C@@H](CCN2CCN(C(=O)CCCCNc3cccc4c3C(=O)N(C3CCC(=O)NC3=O)C4=O)CC2)c2ccc(Cl)cc2)CCN(c2ncnc3[nH]ccc23)CC1 (stereo partly drawn) [Compound 27, 4-Amino-N-((1S)-1-(4-chlorophenyl)-3-(4-(5-((2-(2,6-dioxopiperidin-3-yl)-1,3-dioxoisoindolin-4-yl)amino)pentanoyl)piperazin-1-yl)propyl)-1-(7H-pyrrolo[2,3-d]pyrimidin-4-yl)piperidine-4-carboxamide]	moderate effectiveness	downstream signaling inhibition [1, 2]: moderate effectiveness
NC1(C(=O)N[C@@H](CCN2CCN(C(=O)CCCCCCNc3cccc4c3C(=O)N(C3CCC(=O)NC3=O)C4=O)CC2)c2ccc(Cl)cc2)CCN(c2ncnc3[nH]ccc23)CC1 (stereo partly drawn) [Compound 29, 4-Amino-N-((1S)-1-(4-chlorophenyl)-3-(4-(7-((2-(2,6-dioxopiperidin-3-yl)-1,3-dioxoisoindolin-4-yl)amino)heptanoyl)piperazin-1-yl)propyl)-1-(7H-pyrrolo[2,3-d]pyrimidin-4-yl)piperidine-4-carboxamide]	negligible AKT degradation	–
NC1(C(=O)N[C@@H](CCN2CCN(C(=O)CCCCCCCNc3cccc4c3C(=O)N(C3CCC(=O)NC3=O)C4=O)CC2)c2ccc(Cl)cc2)CCN(c2ncnc3[nH]ccc23)CC1 (stereo partly drawn) [Compound 30, 4-Amino-N-((1S)-1-(4-chlorophenyl)-3-(4-(8-((2-(2,6-dioxopiperidin-3-yl)-1,3-dioxoisoindolin-4-yl)amino)octanoyl)piperazin-1-yl)-propyl)-1-(7H-pyrrolo[2,3-d]pyrimidin-4-yl)piperidine-4-carboxamide]	negligible AKT degradation	–
NC1(C(=O)N[C@@H](CCN2CCN(C(=O)CCOCCNc3cccc4c3C(=O)N(C3CCC(=O)NC3=O)C4=O)CC2)c2ccc(Cl)cc2)CCN(c2ncnc3[nH]ccc23)CC1 (stereo partly drawn) [Compound 31, 4-Amino-N-((1S)-1-(4-chlorophenyl)-3-(4-(3-(2-((2-(2,6-dioxopiperidin-3-yl)-1,3-dioxoisoindolin-4-yl)amino)ethoxy)propanoyl)-piperazin-1-yl)propyl)-1-(7H-pyrrolo[2,3-d]pyrimidin-4-yl)-piperidine-4-carboxamide]	–	AKT degradation (total AKT (T-AKT); 10 μM): only moderate AKT degradation
NC1(C(=O)N[C@@H](CCN2CCN(C(=O)CCOCCOCCOCCOCCOCCNc3cccc4c3CN(C3CCC(=O)NC3=O)C4=O)CC2)c2ccc(Cl)cc2)CCN(c2ncnc3[nH]ccc23)CC1 (stereo partly drawn) [Compound 39, 4-Amino-N-((1S)-1-(4-chlorophenyl)-3-(4-(1-((2-(2,6-dioxopiperidin-3-yl)-1-oxoisoindolin-4-yl)amino)-3,6,9,12,15-pentaoxaoctadecan-18-oyl)piperazin-1-yl)propyl)-1-(7H-pyrrolo[2,3-d]pyrimidin-4-yl)piperidine-4-carboxamide]	significantly decreased effectiveness in AKT degradation	–
